Experimental data as given in patent publication US20200390101A1, “MICROBICIDAL COMPOSITION” (DOW GLOBAL TECHNOLOGIES LLC, priority 2017, published 2020).

Test system: anaerobic sulfate-reducing bacteria
Experiment: Sulfide control efficacy against anaerobic sulfate-reducing bacteria (colorimetric sulfide measurement after 2 days at 35° C.)
Format: cell-based
Settings: for Sulfide (ppm): sulfide level at the listed THPS/nitrate concentrations after 2 days at 35° C.
Experimental: Inside an anaerobic chamber (Bactron anaerobic chamber), a deoxygenated sterile salt solution (3.12 g of NaCl, 0.13 g of NaHCO3, 0.17 g of Na2SO4, 47.70 mg of KC1, 72.00 mg of CaCl2, 54.49 mg of MgSO4, 43.92 mg of Na2CO3 in 1 L water and then enriched with 5% of ATCC 1249 Modified Baar's Medium) was inoculated with a sulfate-reducing bacteria which has a high similarity in 16S rRNA gene sequence with Desulfovibrio alaskensis and Desulfovibrio vietnamensis, at a final bacterial concentrations of 10^7 CFU/mL. […] After the mixtures were incubated at 35° C. for 2 days, sulfide level in all treatments including non THPS and or nitrate controls were measured using a colorimetric method described by D. Andrew et. al in “Standard Methods for the Examination of Water and Wastewater 4500-S2-”, with a scaled down sample size (250 μl) and reagents (scaled down accordingly) to allow the analysis to be done in 96-well micro-titer plates. Final results were read using a 96-well plate reader (TECAN Sunrise) at wavelength of 580 nm.
SI is calculated as follows:
Ca/CA+Cb/CB=Synergy Index (“SI”)

`O=[N+]([O-])[O-].[Na+]` [THPS:Nitrate 0:1, sodium nitrate] was tested, and the “Active ppm concentration required to control sulfide below 10 ppm, Nitrate” value (nitrate component (sodium nitrate), 10^7 CFU/mL, 35° C., 2 days, anaerobic) was greater than 800 ppm and the “Sulfide (ppm)” value was 74.26 ppm.

In the case of “tetrakis(hydroxymethyl) phosphonium sulfate [THPS:Nitrate 1:0]”, the “Active ppm concentration required to control sulfide below 10 ppm, THPS” value (THPS component, 10^7 CFU/mL, 35° C., 2 days, anaerobic) is reported as 12.50 ppm and the “Sulfide (ppm)” value is reported as 2.48 ppm.
